Results on 35 compounds are retold here after patent US10183009B2, “Therapeutic compounds and uses thereof” (GENENTECH, INC., priority 2014, dated 2019).

BRD9, sequence (Q9H8M2 134-239 limits assumed): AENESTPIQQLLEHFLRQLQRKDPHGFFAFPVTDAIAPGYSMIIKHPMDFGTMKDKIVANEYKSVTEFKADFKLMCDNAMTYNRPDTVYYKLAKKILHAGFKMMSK

The assay concerns the target BRD9 (Homo sapiens (Human), UniProt Q9H8M2). In words: BRD9 AlphaLisa Binding Assay. As to the method:
After 20 minutes incubation at room temperature AlphaLisa Streptavidin Acceptor Beads (Perkin-A[…]) and AlphaLisa Nickel donor beads (Perkin AS 10 ID) were added to a final concentration of 15 ug/mL each.
Background: Alpha assays give light when donor and acceptor beads are brought close together.
`CC(C)CCn1cc(-c2cccc(C(=O)N(C)C)c2)c2cc[nH]c2c1=O` [Example 10, 3-(6-isopentyl-7-oxo-1H-pyrrolo[2,3-c]pyridin-4-yl)-N,N-dimethyl-benzamide] yielded an IC50 of 320 nM.

On to `C/C=C/Cn1cc(-c2cc(F)cc(C(=O)N(C)C)c2)c2cc[nH]c2c1=O` [Example 19, 3-[6-[(E)-but-2-enyl]-7-oxo-1H-pyrrolo[2,3-c]pyridin-4-yl]-5-fluoro-N,N-dimethyl-benzamide], for which the concentration for half-maximal inhibition (IC50) is 94 nM.

In turn, `C/C=C/Cn1cc(-c2ccc(C(=O)NC)cc2)c2cc[nH]c2c1=O` [Example 24, 4-[6-[(E)-but-2-enyl]-7-oxo-1H-pyrrolo[2,3-c]pyridin-4-yl]-N-methyl-benzamide] had an IC50 of 29 nM.

The compound `C/C=C/Cn1cc(-c2cccc(C(N)=O)c2)c2cc[nH]c2c1=O` [Example 30, 3-[6-[(E)-but-2-enyl]-7-oxo-1H-pyrrolo[2,3-c]pyridin-4-yl]benzamide] returned an IC50 of 510 nM. Compared with the last compound, the IC50 is about 18-fold higher.

In turn, `C/C=C/Cn1cc(-c2ccc(NS(C)(=O)=O)cc2)c2cc[nH]c2c1=O` [Example 34, N-[4-[6-[(E)-but-2-enyl]-7-oxo-1H-pyrrolo[2,3-c]pyridin-4-yl]phenyl]methanesulfonamide] showed an IC50 of 22 nM.

On to `C/C=C/Cn1cc(-c2cc(C(=O)N(C)C)ccc2F)c2cc[nH]c2c1=O` [Example 41, 3-[6-[(E)-but-2-enyl]-7-oxo-1H-pyrrolo[2,3-c]pyridin-4-yl]-4-fluoro-N,N-dimethyl-benzamide], for which the IC50 turned out to be 130 nM.

With `C/C=C/Cn1cc(-c2cccc(C(=O)N(C)C)c2F)c2cc[nH]c2c1=O` [Example 42, 3-[6-[(E)-but-2-enyl]-7-oxo-1H-pyrrolo[2,3-c]pyridin-4-yl]-fluoro-N,N-dimethyl-benzamide], the 50% inhibitory concentration (IC50) came to 82 nM.

For the compound `C/C=C/Cn1cc(-c2ccc(C(=O)N3CCOCC3)c(Cl)c2)c2cc[nH]c2c1=O` [Example 51, 6-[(E)-but-2-enyl]-4-[3-chloro-4-(morpholine-4-carbonyl)phenyl]-1H-pyrrolo[2,3-c]pyridin-7-one], the IC50 amounted to 13 nM. This IC50 lies about 6.3-fold lower than the previous one.

The compound `C/C=C/Cn1cc(-c2ccc(C(=O)N3CCCC3)c(Cl)c2)c2cc[nH]c2c1=O` [Example 52, 6-[(E)-but-2-enyl]-4-[3-chloro-4-(pyrrolidine-1-carbonyl)phenyl]-1H-pyrrolo[2,3-c]pyridin-7-one] yielded an IC50 of 46 nM.

The compound `C/C=C/Cn1cc(-c2cc(C(=O)N(C)C)ccc2OC)c2cc[nH]c2c1=O` [Example 64, 3-[6-[(E)-but-2-enyl]-7-oxo-1H-pyrrolo[2,3-c]pyridin-4-yl]-4-methoxy-N,N-dimethyl-benzamide] returned an IC50 of 56 nM.

The compound `C/C=C/Cn1cc(-c2cc(C(=O)NC)ccc2OC)c2cc[nH]c2c1=O` [Example 67, 3-[6-[(E)-but-2-enyl]-7-oxo-1H-pyrrolo[2,3-c]pyridin-4-yl]-4-methoxy-N-methyl-benzamide] had an IC50 of 35 nM.

With `C/C=C/Cn1cc(-c2cc(C(=O)N3CCCC3)ccc2OC)c2cc[nH]c2c1=O` [Example 68, 6-[(E)-but-2-enyl]-4-[2-methoxy-5-(pyrrolidine-1-carbonyl)phenyl]-1H-pyrrolo[2,3-c]pyridin-7-one], the IC50 stood at 39 nM.

`C/C=C/Cn1cc(-c2cc(C(=O)NCC(C)C)ccc2OC)c2cc[nH]c2c1=O` [Example 70, 3-[6-[(E)-but-2-enyl]-7-oxo-1H-pyrrolo[2,3-c]pyridin-4-yl]-N-isobutyl-4-methoxy-benzamide]: the IC50 was found to be 28 nM.

`C/C=C/Cn1cc(-c2cc(C(=O)NCCN(C)C)ccc2OC)c2cc[nH]c2c1=O` [Example 72, 3-[6-[(E)-but-2-enyl]-7-oxo-1H-pyrrolo[2,3-c]pyridin-4-yl]-N-[2-(dimethylamino)ethyl]-4-methoxy-benzamide] registered an IC50 of 23 nM.

For the compound `C/C=C/Cn1cc(-c2cc(C(=O)NCCO)ccc2OC)c2cc[nH]c2c1=O` [Example 73, 3-[6-[(E)-but-2-enyl]-7-oxo-1H-pyrrolo[2,3-c]pyridin-4-yl]-N-(2-hydroxyethyl)-4-methoxy-benzamide], the IC50 turned out to be 35 nM.

Consider `C/C=C/Cn1cc(-c2cc(C(=O)NCCC)ccc2OC)c2cc[nH]c2c1=O` [Example 74, 3-[6-[(E)-but-2-enyl]-7-oxo-1H-pyrrolo[2,3-c]pyridin-4-yl]-4-methoxy-N-propyl-benzamide], for which the IC50 was 27 nM.

On to `CCCCn1cc(-c2cc(C(=O)N3CC4(CN(C(C)=O)C4)C3)ccc2OC)c2cc[nH]c2c1=O` [Example 78, 4-[5-(2-acetyl-2,6-diazaspiro[3.3]heptane-6-carbonyl)-2-methoxy-phenyl]-6-butyl-1H-pyrrolo[2,3-c]pyridin-7-one], for which the IC50 amounted to 65 nM.

Regarding `CCCCn1cc(-c2ccc(C(C)(C)O)cc2OC)c2cc[nH]c2c1=O` [Example 80, 6-butyl-4-[4-(1-hydroxy-1-methyl-ethyl)-2-methoxy-phenyl]-1H-pyrrolo[2,3-c]pyridin-7-one], the IC50 is 73 nM. This IC50 and that of the compound before are within 1.5-fold of each other.

The compound `CCCCn1cc(-c2ccc(C(C)(C)O)cc2)c2cc[nH]c2c1=O` [Example 82, 6-butyl-4-[4-(1-hydroxy-1-methyl-ethyl)phenyl]-1H-pyrrolo[2,3-c]pyridin-7-one] had an IC50 of 43 nM.

Regarding `CCCCn1cc(-c2cc(C(=O)N(C)C)ccc2OC)c2cc(C)[nH]c2c1=O` [Example 87, 3-(6-butyl-2-methyl-7-oxo-1H-pyrrolo[2,3-c]pyridin-4-yl)-4-methoxy-N,N-dimethyl-benzamide], the IC50 is 66 nM. This IC50 lies about 1.5-fold higher than the previous one.

The compound `COc1ccc(C(=O)N(C)C)cc1-c1cn(CCC2CC2)c(=O)c2[nH]c(C)cc12` [Example 88, 3-[6-(2-cyclopropylethyl)-2-methyl-7-oxo-1H-pyrrolo[2,3-c]pyridin-4-yl]-4-methoxy-N,N-dimethyl-benzamide] displayed an IC50 of 300 nM.

Compound `C/C=C/Cn1cc(-c2ccc(C(=O)N3CCCC3)cc2)c2cc(C)[nH]c2c1=O` [Example 91, 6-[(E)-but-2-enyl]-2-methyl-4-[4-(pyrrolidine-1-carbonyl)phenyl]-1H-pyrrolo[2,3-c]pyridin-7-one] yielded an IC50 of 13 nM.

In turn, `C/C=C/Cn1cc(-c2ccc(C(=O)N3CCCC3)c(Cl)c2)c2cc(C)[nH]c2c1=O` [Example 92, 6-[(E)-but-2-enyl]-4-[3-chloro-4-(pyrrolidine-1-carbonyl)phenyl]-2-methyl-1H-pyrrolo[2,3-c]pyridin-7-one] had an IC50 of 10 nM.

As for `C/C=C/Cn1cc(-c2ccc(C(=O)N3CCOCC3)c(F)c2F)c2cc(C)[nH]c2c1=O` [Example 93, 6-[(E)-but-2-enyl]-4-[2,3-difluoro-4-(morpholine-4-carbonyl)phenyl]-2-methyl-1H-pyrrolo[2,3-c]pyridin-7-one], the IC50 stood at 34 nM.

As for `C/C=C/Cn1cc(-c2cnc(C(=O)N3CCOCC3)c(Cl)c2)c2cc(C)[nH]c2c1=O` [Example 98, 6-[(E)-but-2-enyl]-4-[5-chloro-6-(morpholine-4-carbonyl)-3-pyridyl]-2-methyl-1H-pyrrolo[2,3-c]pyridin-7-one], the IC50 was determined as 32 nM.

For `C/C=C/Cn1cc(-c2ccc(C(=O)N3CCN(C)CC3)c(Cl)c2)c2cc(C)[nH]c2c1=O` [Example 99, 6-[(E)-but-2-enyl]-4-[3-chloro-4-(4-methylpiperazine-1-carbonyl)phenyl]-2-methyl-1H-pyrrolo[2,3-c]pyridin-7-one], the IC50 came to 9 nM.

In turn, `C=CCn1cc(-c2ccc(C(=O)N3CCOCC3)c(Cl)c2)c2cc(C)[nH]c2c1=O` [Example 101, 6-allyl-4-[3-chloro-4-(morpholine-4-carbonyl)phenyl]-2-methyl-1H-pyrrolo[2,3-c]pyridin-7-one] had a half-maximal inhibitory concentration (IC50) of 12 nM.

`C/C=C/Cn1cc(-c2ncc(C(=O)N3CCOCC3)cc2OC)c2cc(C)[nH]c2c1=O` [Example 103, 6-[(E)-but-2-enyl]-4-[3-methoxy-5-(morpholine-4-carbonyl)-2-pyridyl]-2-methyl-1H-pyrrolo[2,3-c]pyridin-7-one] showed an IC50 of 46 nM.

`C/C=C/Cn1cc(-c2cc(Cl)c(C(=O)N3CCOCC3)cn2)c2cc(C)[nH]c2c1=O` [Example 104, 6-[(E)-but-2-enyl]-4-[4-chloro-5-(morpholine-4-carbonyl)-2-pyridyl]-2-methyl-1H-pyrrolo[2,3-c]pyridin-7-one] showed an IC50 of 22 nM. This IC50 lies about 2.1-fold lower than the previous one.

With `C/C=C/Cn1cc(-c2cnc(C(=O)N3CCOCC3)nc2)c2cc(C)[nH]c2c1=O` [Example 105, 6-[(E)-but-2-enyl]-2-methyl-4-[2-(morpholine-4-carbonyl)pyrimidin-5-yl]-1H-pyrrolo[2,3-c]pyridin-7-one], the IC50 amounted to 83 nM.

As for `C/C=C/Cn1cc(-c2ccc(C(C)(C)O)cc2OC)c2cc(C)[nH]c2c1=O` [Example 107, 6-[(E)-but-2-enyl]-4-[4-(1-hydroxy-1-methyl-ethyl)-2-methoxy-phenyl]-2-methyl-1H-pyrrolo[2,3-c]pyridin-7-one], the IC50 was 100 nM. The IC50 values of the last two compounds are within 1.5-fold of each other.

Regarding `C/C=C/Cn1cc(-c2cc(C(=O)NCc3cnccn3)ccc2OC)c2cc(C)[nH]c2c1=O` [Example 109, 3-[6-[(E)-but-2-enyl]-2-methyl-7-oxo-1H-pyrrolo[2,3-c]pyridin-4-yl]-4-methoxy-N-(pyrazin-2-ylmethyl)benzamide], the IC50 amounted to 6 nM.

As for `C/C=C/Cn1cc(-c2ncc(C(=O)N3CCN(C)CC3)cc2OC)c2cc(C)[nH]c2c1=O` [Example 110, 6-[(E)-but-2-enyl]-4-[3-methoxy-5-(4-methylpiperazine-1-carbonyl)-2-pyridyl]-2-methyl-1H-pyrrolo[2,3-c]pyridin-7-one], the IC50 was found to be 39 nM.

As to `C/C=C/Cn1cc(-c2ccc(C(=O)N3CCC(C(=O)O)CC3)c(Cl)c2)c2cc(C)[nH]c2c1=O` [Example 112, 1-[4-[6-[(E)-but-2-enyl]-2-methyl-7-oxo-1H-pyrrolo[2,3-c]pyridin-4-yl]-2-chloro-benzoyl]piperidine-4-carboxylic acid], the IC50 turned out to be 8 nM.

`C/C=C/Cn1cc(-c2ccc(C(=O)N3CCC(C(N)=O)CC3)c(Cl)c2)c2cc(C)[nH]c2c1=O` [Example 113, (E)-1-(4-(6-(but-2-en-1-yl)-2-methyl-7-oxo-6,7-dihydro-1H-pyrrolo[2,3-c]pyridin-4-yl)-2-chlorobenzoyl)piperidine-4-carboxamide] showed an IC50 of 3 nM.

For orientation: IC50 means the concentration that inhibits the measured activity by half. Higher therefore signals lower potency.
